US20170355691A1, “PESTICIDALLY ACTIVE HETEROCYCLIC DERIVATIVES WITH SULPHUR CONTAINING SUBSTITUENTS” (Syngenta Participations AG, priority 2015, published 2017)

What was measured:
Assay type in all cases: in vivo
[1] = system: Anopheles stephensi (Indian malaria mosquito); assay: Activity against Anopheles stephensi, dry deposit in tissue culture plates (Example B11); settings: 200 ppm in ethanol, adult females, after 48 h and/or 24 h
Experimental: Example B11: Activity Against Anopheles stephensi (Indian Malaria Mosquito)
Test solutions, at an application rate of 200 ppm in ethanol, were applied to 12 well tissue culture plates. Once the deposits were dry, five, two to five day old adult female Anopheles stephensi were added to each well, and sustained with a 10% sucrose solution in a cotton wool plug. Assessment of knockdown was made one hour after introduction, and mortality was assessed at 24 and 48 hours after introduction. The following compounds gave at least 80% control of Anopheles stephensi after 48 h and/or 24 h: P1.14.

[2] = system: Spodoptera littoralis (Egyptian cotton leaf worm); assay: Activity against Spodoptera littoralis, cotton leaf disc spray (Example B1); settings: foliar, 72 h, L1 larvae on cotton leaf discs, 3 days after infestation, read-out: control in at least one of the three categories (mortality, anti-feedancy or growth inhibition)
Experimental: Example B1: Activity Against Spodoptera littoralis (Egyptian Cotton Leaf Worm)
Cotton leaf discs were placed on agar in 24-well microtiter plates and sprayed with aqueous test solutions prepared from 10′000 ppm DMSO stock solutions. After drying the leaf discs were infested with five L1 larvae. The samples were assessed for mortality, anti-feedant effect, and growth inhibition in comparison to untreated samples 3 days after infestation. Control of Spodoptera littoralis by a test sample is when at least one of mortality, anti-feedant effect, and growth inhibition is higher than the untreated sample. The following compounds gave an effect of at least 80% control in at least one of the three categories (mortality, anti-feedancy or growth inhibition) at an application rate of 200 ppm: P1.2, P1.3, P1.6, P1.7, P1.8, P1.9, P1.10, P1.12, P1.13, P1.14, P1.15, P1.16, P1.17 and P1.18.

[3] = system: Plutella xylostella (diamond back moth); assay: Activity against Plutella xylostella, artificial diet (Example B2); settings: 120 h, L2 larvae on artificial diet, 5 days after infestation, read-out: effect in at least one of the two categories (mortality or growth inhibition)
Experimental: Example B2: Activity Against Plutella xylostella (Diamond Back Moth)
24-well microtiter plates with artificial diet were treated with aqueous test solutions prepared from 10′000 ppm DMSO stock solutions by pipetting. After drying, the plates were infested with L2 larvae (10 to 15 per well). The samples were assessed for mortality and growth inhibition in comparison to untreated samples 5 days after infestation. The following compounds gave an effect of at least 80% in at least one of the two categories (mortality or growth inhibition) at an application rate of 200 ppm: P1.3, P1.6, P1.7, P1.8, P1.9, P1.13, P1.14, P1.15, P1.16, P1.17 and P1.18.

[4] = system: Diabrotica balteata (corn root worm); assay: Activity against Diabrotica balteata, maize sprouts (Example B3); settings: 96 h, L2 larvae on maize sprouts, 4 days after infestation, read-out: effect in at least one of the two categories (mortality or growth inhibition)
Experimental: Example B3: Activity Against Diabrotica balteata (Corn Root Worm)
Maize sprouts, placed on an agar layer in 24-well microtiter plates were treated with aqueous test solutions prepared from 10′000 ppm DMSO stock solutions by spraying. After drying, the plates were infested with L2 larvae (6 to 10 per well). The samples were assessed for mortality and growth inhibition in comparison to untreated samples 4 days after infestation. The following compounds gave an effect of at least 80% in at least one of the two categories (mortality or growth inhibition) at an application rate of 200 ppm: P1.1, P1.2, P1.6, P1.7, P1.8, P1.9, P1.10, P1.13, P1.14, P1.15, P1.16, P1.17 and P1.18.

[5] = system: Myzus persicae (green peach aphid); assay: Activity against Myzus persicae, sunflower leaf disc spray (Example B5); settings: foliar, 144 h, mixed-age aphid population on sunflower leaf discs, 6 days after infestation
Experimental: Example B5: Activity Against Myzus persicae (Green Peach Aphid)
Sunflower leaf discs were placed on agar in a 24-well microtiter plate and sprayed with aqueous test solutions prepared from 10′000 ppm DMSO stock solutions. After drying, the leaf discs were infested with an aphid population of mixed ages. The samples were assessed for mortality 6 days after infestation.

[6] = system: Euschistus heros (neotropical brown stink bug); assay: Activity against Euschistus heros, soybean leaf spray (Example B7); settings: 120 h, N-2 nymphs on soybean leaf, 5 days after infestation
Experimental: Example B7: Activity Against Euschistus heros (Neotropical Brown Stink Bug)
Soybean leaf on agar in 24-well microtiter plates were sprayed with aqueous test solutions prepared from 10′000 ppm DMSO stock solutions. After drying the leaf were infested with N-2 nymphs. The samples were assessed for mortality 5 days after infestation.

## CCS(=O)(=O)c1cc(C(F)(F)F)ccc1-n1cc(-c2ccc(C(F)(F)F)nc2)cn1 [Compound P1.14]
[1]
  control of Anopheles stephensi: at least 80%
[2]
  percent control (mortality, anti-feedant effect or growth inhibition) at 200 ppm: ≥ 80%
[3]
  percent effect (mortality or growth inhibition) at 200 ppm: ≥ 80%
[4]
  percent effect (mortality or growth inhibition) at 200 ppm: ≥ 80%
[5]
  mortality at 200 ppm: ≥ 80%
[6]
  mortality at 200 ppm: ≥ 80%
